Measurements: ChEMBL document CHEMBL5244273, “Tuberculosis: An Overview of the Immunogenic Response, Disease Progression, and Medicinal Chemistry Efforts in the Last Decade toward the Development of Potential Drugs for Extensively Drug-Resistant Tuberculosis Strains” (J Med Chem, 2021)
Converted amounts (≈) assume the structure as drawn.

System: Mycobacterium tuberculosis
Assay: Antimycobacterial activity against Mycobacterium tuberculosis H37Rv assessed as inhibition of bacterial growth by resazurin dye based fluorescence analysis
Format: functional

Structure (SMILES)	MIC
O=S(=O)(NCCO)c1ccc(-c2nnn(Cc3ccc(F)cn3)n2)cc1	0.1 µM (≈ 0.0378 µg/mL)
CCNS(=O)(=O)c1ccc(-c2nnn(Cc3ccncc3)n2)cc1	0.1 µM (≈ 0.0344 µg/mL)
C[C@@H](O)CNS(=O)(=O)c1ccc(-c2nnn(Cc3ccc(F)cn3)n2)cc1	0.1 µM (≈ 0.0392 µg/mL)
CNS(=O)(=O)c1ccc(-c2nnn(Cc3ccc(F)cc3)n2)cc1	0.1 µM (≈ 0.0347 µg/mL)
O=S(=O)(NCC(O)CO)c1ccc(-c2nnn(Cc3ccc(F)cc3)n2)cc1 (stereo not given)	0.1 µM (≈ 0.0407 µg/mL)
NC(=O)CNS(=O)(=O)c1ccc(-c2nnn(CC3CCC(F)(F)CC3)n2)cc1	0.1 µM (≈ 0.0414 µg/mL)
O=S(=O)(NCCO)c1ccc(-c2nnn(CC3CCCCO3)n2)cc1 (stereo not given)	0.1 µM (≈ 0.0367 µg/mL)
COc1ccc(Cn2nnc(-c3ccc(S(=O)(=O)NC[C@@H](C)O)cc3)n2)cc1	0.1 µM (≈ 0.0403 µg/mL)
O=S(=O)(NC(CO)CO)c1ccc(-c2nnn(Cc3ccc(F)cc3)n2)cc1	0.1 µM (≈ 0.0407 µg/mL)
O=S(=O)(NCCO)c1ccc(-c2nnn(Cc3ccc(F)cc3)n2)cc1	0.1 µM (≈ 0.0377 µg/mL)
COc1ccc(Cn2nnc(-c3ccc(S(=O)(=O)NC[C@@H](C)O)cc3)n2)nc1	0.1 µM (≈ 0.0404 µg/mL)
C[C@@H](O)CNS(=O)(=O)c1ccc(-c2nnn(Cc3ccc(F)cc3)n2)cc1	0.1 µM (≈ 0.0391 µg/mL)
N#Cc1ccc(Cn2nnc(-c3ccc(S(=O)(=O)NCCO)cc3)n2)cc1	0.1 µM (≈ 0.0384 µg/mL)
CCc1ccc(Cn2nnc(-c3ccc(S(=O)(=O)NCCO)cc3)n2)cc1	0.1 µM (≈ 0.0387 µg/mL)
NC(=O)CNS(=O)(=O)c1ccc(-c2nnn(Cc3ccc(F)cn3)n2)cc1	0.1 µM (≈ 0.0391 µg/mL)
N#Cc1ccc(Cn2nnc(-c3ccc(S(=O)(=O)NCCO)cc3)n2)nc1	0.1 µM (≈ 0.0385 µg/mL)
O=S(=O)(NCCO)c1ccc(-c2nnn(Cc3ccncc3)n2)cc1	0.1 µM (≈ 0.036 µg/mL)
O=S(=O)(NCCO)c1ccc(-c2nnn(Cc3ccncn3)n2)cc1	0.1 µM (≈ 0.0361 µg/mL)
O=S(=O)(NCCO)c1ccc(-c2nnn(CC3CCC(F)(F)CC3)n2)cc1	0.1 µM (≈ 0.0401 µg/mL)
C[C@@H](O)CNS(=O)(=O)c1ccc(-c2nnn(Cc3ccncc3)n2)cc1	0.1 µM (≈ 0.0374 µg/mL)

Structure (SMILES)	MIC
Cc1ccc(Cn2nnc(-c3ccc(S(=O)(=O)NC[C@@H](C)O)cc3)n2)nc1	0.1 µM (≈ 0.0388 µg/mL)
O=S(=O)(NC(CO)CO)c1ccc(-c2nnn(Cc3ccncc3)n2)cc1	0.1 µM (≈ 0.039 µg/mL)
CNS(=O)(=O)c1ccc(-c2nnn(Cc3ccncc3)n2)cc1	0.1 µM (≈ 0.033 µg/mL)
Cc1nccc(Cn2nnc(-c3ccc(S(=O)(=O)NCCO)cc3)n2)n1	0.1 µM (≈ 0.0375 µg/mL)
NC(=O)CNS(=O)(=O)c1ccc(-c2nnn(Cc3ccc(F)c(F)c3)n2)cc1	0.1 µM (≈ 0.0408 µg/mL)
O=S(=O)(NCCO)c1ccc(-c2nnn(Cc3ccc(C(F)F)cc3)n2)cc1	0.1 µM (≈ 0.0409 µg/mL)
Cc1ccc(Cn2nnc(-c3ccc(S(=O)(=O)NCCO)cc3)n2)nc1	0.1 µM (≈ 0.0374 µg/mL)
COc1ccc(Cn2nnc(-c3ccc(S(=O)(=O)NCC(N)=O)cc3)n2)cc1	0.1 µM (≈ 0.0402 µg/mL)
Cc1cc(Cn2nnc(-c3ccc(S(=O)(=O)NCCO)cc3)n2)ccn1	0.1 µM (≈ 0.0374 µg/mL)
Cc1ccc(Cn2nnc(-c3ccc(S(=O)(=O)NCC(N)=O)cc3)n2)cc1	0.1 µM (≈ 0.0386 µg/mL)
COc1ccc(Cn2nnc(-c3ccc(S(=O)(=O)NCCO)cc3)n2)nc1	0.1 µM (≈ 0.039 µg/mL)
C[C@H](O)CNS(=O)(=O)c1ccc(-c2nnn(Cc3ccc(F)cc3)n2)cc1	0.1 µM (≈ 0.0391 µg/mL)
O=S(=O)(NCCO)c1ccc(-c2nnn(Cc3ncc(F)cc3F)n2)cc1	0.1 µM (≈ 0.0396 µg/mL)
Cc1cccc(Cn2nnc(-c3ccc(S(=O)(=O)NCCO)cc3)n2)n1	0.1 µM (≈ 0.0374 µg/mL)
O=S(=O)(NCCO)c1ccc(-c2nnn(Cc3ccc(Cl)cc3)n2)cc1	0.1 µM (≈ 0.0394 µg/mL)
COc1ccc(Cn2nnc(-c3ccc(S(=O)(=O)NCCO)cc3)n2)cc1F	0.1 µM (≈ 0.0407 µg/mL)
O=S(=O)(NCCO)c1ccc(-c2nnn(Cc3ccc(Cl)cn3)n2)cc1	0.1 µM (≈ 0.0395 µg/mL)
C[C@@H](O)CNS(=O)(=O)c1ccc(-c2nnn(CC3CCC(F)(F)CC3)n2)cc1	0.1 µM (≈ 0.0415 µg/mL)
COc1ccc(Cn2nnc(-c3ccc(S(=O)(=O)NCCO)cc3)n2)cc1	0.1 µM (≈ 0.0389 µg/mL)

System: Mycobacterium tuberculosis
Assay: Antimycobacterial activity against Mycobacterium tuberculosis H37Rv
Format: functional

Structure (SMILES)	MIC	MIC90	MIC99
Cc1ccc(-c2nnc(S)o2)cc1	9.6 µg/mL (≈ 49.9 µM)	–	–
COC(=O)c1c(NC(=O)c2c(F)c(F)c(F)c(F)c2F)sc2c1CCCCC2	1 µg/mL (≈ 2.38 µM)	–	–
Sc1nnc(-c2ccccc2Cl)o1	21.2 µg/mL (≈ 99.7 µM)	–	–
Sc1nnc(-c2ccc(Cl)cc2)o1	5.3 µg/mL (≈ 24.9 µM)	–	–
Fc1ccc(-c2nnc(S)o2)cc1	> 25 µg/mL	–	–
Sc1nnc(-c2ccccc2Br)o1	> 25 µg/mL	–	–
CCOC(=O)c1c(NC(=O)c2c(F)c(F)c(F)c(F)c2F)sc(C(N)=O)c1C	0.5 µg/mL (≈ 1.18 µM)	–	–
S=c1[nH]nc(C2CCCCC2)o1	> 25 µg/mL	–	–
CCOC(=O)c1c(NC(=O)c2c(F)c(F)c(F)c(F)c2F)sc2c1CCCCC2	1.9 µg/mL (≈ 4.38 µM)	–	–
Nc1ccsc1-c1nnc(S)o1	21.3 µg/mL (≈ 107 µM)	–	–
NC(=O)N1N=C(c2ccc3oc(N)nc3c2)CC1c1cccs1 (stereo not given)	6.25 µg/mL (≈ 19.1 µM)	–	–
O=[N+]([O-])c1ccc(-c2nnc(S)o2)cc1	3.1 µg/mL (≈ 13.9 µM)	–	–
CC(=O)N1/C(=C/c2cccc(-c3cnn(C)c3)c2)C(=O)c2ccccc21	–	4.93 µM (≈ 1.69 µg/mL)	5.61 µM (≈ 1.93 µg/mL)
CC(=O)N1/C(=C/c2ccc(Oc3ccc(Cl)cc3)cc2)C(=O)c2cc(Cl)ccc21	–	6.02 µM (≈ 2.55 µg/mL)	6.87 µM (≈ 2.91 µg/mL)
